Results as given in paper PMC10447463, “Data-mining unveils structure–property–activity correlation of viral infectivity enhancing self-assembling peptides” (Nature Communications, 2023).
Where two headings read alike, the source gives them in different places.

Legend:
[1] = format: physicochemical; conditions: for ThT Cat. / ThT-Fluorescence (categorical): ThT-active if fluorescence at least twice the control
Procedure, shortened: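 Preformed peptide fibrils (1 mg/mL) mixed with 50 µM ThT in PBS, 15 min at RT, fluorescence ex 440/em 488 nm versus PBS blank, triplicates. Zeta potential: peptides at 1 mg/mL in PBS pH 7.4, aged 1 d at RT, diluted in 1 mM KCl, Smoluchowski from electrophoretic mobility.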

[2] = Turbidity, derived count rate of scattered light; format: physicochemical; conditions: for Count Rate / kcps: derived count rate of scattered light at 633 nm, 173°, from zeta-potential measurement, 0.1 mg/mL in 1 mM KCl after 1 d at 1 mg/mL in PBS, turbidity / microscopic aggregation, mean of triplicate
Procedure, shortened: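 Samples: 1 mg/mL in PBS pH 7.4 (from DMSO), 1 d at RT, then diluted in 1 mM KCl immediately before measurement. Triplicates, two independent runs averaged.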

[3] = Log10 of derived count rate of scattered light (turbidity)
[4] = turbidity, Log10 of derived count rate of scattered light, Figure 3A source data
[5] = turbidity, log10 of derived count rate of scattered light
[6] = ThT fluorescence category, 1 if Rel. ThT >2
[7] = logarithm of count rate in kcps

| Substance | Tht category (> 2 to blank = +) ([1]; Fig S10 panel D) | ThT Cat. ([1]; Fig S10 panel E) | Tht category (> 2 to blank = +) ([1]; FigS12 panel A) | ThT Cat, ([1]; FigS12 panel B) | ThT Cat, ([1]; ThT category, 1 if Rel. ThT >2) | ThT Cat. ([1]; ThT category, 1 if Rel. ThT >2) | ThT Cat. / ThT-Fluorescence (categorical) [1] | Log10 Count Rate [2, 3] | Count Rate / kcps [2] [kcps] | Log10 Count Rate [2, 4] | Log10 Count Rate [2, 5] | ThT Cat. [1, 6] | Rel. ThT ([1]; n-fold ThT fluorescence vs control (PBS, 10% DMSO), 4 µL 1 mg/mL fibrils + 20 µL 50 µM ThT, 15 min RT, ex 440 / em 488 nm, triplicate) | Log10 Count Rate [2, 7] | Zeta Count Rate ([2]; peptides with TEM 2cat 0) [kcp] |
| --- | --- | --- | --- | --- | --- | --- | --- | --- | --- | --- | --- | --- | --- | --- | --- |
| HLHLPLL | 0 (ThT-inactive (N-Fold <2)) | 0 (ThT-inactive (N-Fold <2)) | 0 (ThT-inactive (N-Fold <2)) | 0 (ThT-inactive (N-Fold <2)) | 0 (ThT-inactive (N-Fold <2)) | 0 (ThT-inactive (N-Fold <2)) | 0 (ThT-inactive (N-Fold <2)) | 2.301 | 200 | 2.301 | 2.301 | – | – | – | – |
| HRRHFRHKITKKK | 0 (ThT-inactive (N-Fold <2)) | 0 (ThT-inactive (N-Fold <2)) | 0 (ThT-inactive (N-Fold <2)) | 0 (ThT-inactive (N-Fold <2)) | 0 (ThT-inactive (N-Fold <2)) | 0 (ThT-inactive (N-Fold <2)) | 0 (ThT-inactive (N-Fold <2)) | 0.9777 | 10 | 0.9777 | 0.9777 | – | – | – | – |
| KAKAQA | 0 (ThT-inactive (N-Fold <2)) | 0 (ThT-inactive (N-Fold <2)) | 0 (ThT-inactive (N-Fold <2)) | 0 (ThT-inactive (N-Fold <2)) | 0 (ThT-inactive (N-Fold <2)) | – | 0 (ThT-inactive (N-Fold <2)) | 1.321 | 21 | 1.321 | 1.321 | 0 (ThT-inactive (N-Fold <2)) | – | – | – |
| KAKAQANMWQ | 0 (ThT-inactive (N-Fold <2)) | 0 (ThT-inactive (N-Fold <2)) | 0 (ThT-inactive (N-Fold <2)) | 0 (ThT-inactive (N-Fold <2)) | 0 (ThT-inactive (N-Fold <2)) | 0 (ThT-inactive (N-Fold <2)) | 0 (ThT-inactive (N-Fold <2)) | 1.749 | 56 | 1.749 | 1.749 | – | 1 | 1.7 | – |
| KAKQAANMWQ | 0 (ThT-inactive (N-Fold <2)) | – | 0 (ThT-inactive (N-Fold <2)) | 0 (ThT-inactive (N-Fold <2)) | 0 (ThT-inactive (N-Fold <2)) | 0 (ThT-inactive (N-Fold <2)) | 0 (ThT-inactive (N-Fold <2)) | 2.839 | 690 | 2.839 | 2.839 | – | – | – | – |
| KFKFQF | 0 (ThT-inactive (N-Fold <2)) | 0 (ThT-inactive (N-Fold <2)) | 0 (ThT-inactive (N-Fold <2)) | 0 (ThT-inactive (N-Fold <2)) | 0 (ThT-inactive (N-Fold <2)) | – | 0 (ThT-inactive (N-Fold <2)) | 2.263 | 183 | 2.263 | 2.263 | 0 (ThT-inactive (N-Fold <2)) | – | – | – |
| KFKFQFNMWQ | 1 (ThT. Cat is 1, if Rel. ThT >2) | 1 (ThT. Cat is 1, if Rel. ThT >2) | – | – | 1 (ThT. Cat is 1, if Rel. ThT >2) | 1 (ThT. Cat is 1, if Rel. ThT >2) | 1 (ThT. Cat is 1, if Rel. ThT >2) | 2.866 | 735 | 2.866 | 2.866 | – | – | 2.866 | – |
| KFKQFFNMWQ | 0 (ThT-inactive (N-Fold <2)) | – | 0 (ThT-inactive (N-Fold <2)) | 0 (ThT-inactive (N-Fold <2)) | 0 (ThT-inactive (N-Fold <2)) | 0 (ThT-inactive (N-Fold <2)) | 0 (ThT-inactive (N-Fold <2)) | 2.375 | 237 | 2.375 | 2.375 | – | – | – | – |
| KIKIKIKIYYYY | 0 (ThT-inactive (N-Fold <2)) | – | – | – | 0 (ThT-inactive (N-Fold <2)) | – | 0 (ThT-inactive (N-Fold <2)) | 3.996 | 9918 | 3.996 | 3.996 | 0 (ThT-inactive (N-Fold <2)) | – | – | 9918 |
| KIKIQI | 0 (ThT-inactive (N-Fold <2)) | 0 (ThT-inactive (N-Fold <2)) | 0 (ThT-inactive (N-Fold <2)) | 0 (ThT-inactive (N-Fold <2)) | 0 (ThT-inactive (N-Fold <2)) | – | 0 (ThT-inactive (N-Fold <2)) | 2.035 | 108 | 2.035 | 2.035 | 0 (ThT-inactive (N-Fold <2)) | – | – | – |
| KIKIQIAMWQ | 1 (ThT. Cat is 1, if Rel. ThT >2) | – | – | – | 1 (ThT. Cat is 1, if Rel. ThT >2) | – | 1 (ThT. Cat is 1, if Rel. ThT >2) | 2.733 | 541 | 2.733 | 2.733 | 1 (ThT. Cat is 1, if Rel. ThT >2) | – | – | – |
| KIKIQIN | 0 (ThT-inactive (N-Fold <2)) | – | – | – | 0 (ThT-inactive (N-Fold <2)) | – | 0 (ThT-inactive (N-Fold <2)) | 1.638 | 43 | 1.638 | 1.638 | 0 (ThT-inactive (N-Fold <2)) | – | 1.638 | – |
| KIKIQINAWQ | 1 (ThT. Cat is 1, if Rel. ThT >2) | – | – | – | 1 (ThT. Cat is 1, if Rel. ThT >2) | – | 1 (ThT. Cat is 1, if Rel. ThT >2) | 3.174 | 1494 | 3.174 | 3.174 | 1 (ThT. Cat is 1, if Rel. ThT >2) | – | – | – |
| KIKIQINM | 0 (ThT-inactive (N-Fold <2)) | 0 (ThT-inactive (N-Fold <2)) | – | – | 0 (ThT-inactive (N-Fold <2)) | – | 0 (ThT-inactive (N-Fold <2)) | 2.418 | 262 | 2.418 | 2.418 | 0 (ThT-inactive (N-Fold <2)) | – | – | – |
| KIKIQINMAQ | 0 (ThT-inactive (N-Fold <2)) | – | – | – | 0 (ThT-inactive (N-Fold <2)) | – | 0 (ThT-inactive (N-Fold <2)) | 3.768 | 5859 | 3.768 | 3.768 | 0 (ThT-inactive (N-Fold <2)) | – | – | – |
